In patent US20240262842A1, “SMALL MOLECULE INHIBITORS OF KRAS G12C MUTANT” (Merck Sharp & Dohme LLC, priority 2021, published 2024):

Molecular target: biotinylated KRAS G12C protein (GMP-PNP loaded) and GST-tagged Ras binding domain of c-RAF (Homo sapiens, UniProt P01116, C118S/C51S/C80L/G12C)
Assay: RAS:RAF-RBD binding assay (TR-FRET)
Conditions: 30-minute incubation of compound with KRAS G12C before RAF-RBD; Table 4; read-out: IC50

biotinylated KRAS G12C protein (GMP-PNP loaded) and GST-tagged Ras binding domain of c-RAF, sequence (P01116 with tags, fused parts or gaps isoform P01116-2 G12C/C51S/C80L/C118S): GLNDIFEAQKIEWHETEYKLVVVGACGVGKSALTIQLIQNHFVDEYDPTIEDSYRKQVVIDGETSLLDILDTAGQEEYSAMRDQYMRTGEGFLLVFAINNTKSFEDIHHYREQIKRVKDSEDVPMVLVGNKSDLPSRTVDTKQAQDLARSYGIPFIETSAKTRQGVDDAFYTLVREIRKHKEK

Row | SMILES | IC50 [nM]
1 | Cc1nc2c3c(c(C(F)(F)F)cc2n1C)-c1cccn2c(C(=O)c4cc(F)c(NC(=O)/C(F)=C/CN[C@@H]5CCOC5)c(F)c4)cc(c12)CCO3 (atropisomer, axis not shown) [Example 252, (R,Z)-N-(4-(9,10-dimethyl-7-(trifluoromethyl)-13,14-dihydro-9H-imidazo[4″,5″:5′,6′]benzo[1′,2′:2,3]oxocino[4,5,6-hi]indolizine-2-carbonyl)-2,6-difluorophenyl)-2-fluoro-4-((tetrahydrofuran-3-yl)amino)but-2-enamide] | 25.7
2 | Cc1nc2c3c(c(C(F)(F)F)cc2n1C)-c1cccn2c(C(=O)c4cc(F)c(NC(=O)/C=C/C5CCCN5)c(F)c4)cc(c12)CCO3 (single isomer, unassigned) [Example 250, (E)-N-(4-(9,10-dimethyl-7-(trifluoromethyl)-13,14-dihydro-9H-imidazo-[4″,5″:5′,6′]benzo[1′,2′: 2,3]oxocino[4,5,6-hi]-dolizine-2-carbonyl)-2,6-difluorophenyl)-3-(pyrrol-idin-2-yl)acrylamide] | 54.9
3 | Cc1nc2c3c(c(C(F)(F)F)cc2n1C)-c1cccn2c(C(=O)c4cc(F)c(NC(=O)/C=C/C5CCCN5)c(F)c4)cc(c12)CCO3 (single isomer, unassigned) [Example 251, (E)-N-(4-(9,10-dimethyl-7-(trifluoromethyl)-13,14-dihydro-9H-imidazo-[4″,5″:5′,6′]benzo[1′,2′: 2,3]oxocino[4,5,6-hi]-indolizine-2-carbonyl)-2,6-difluorophenyl)-3-(pyrrolidin-2-yl)acryl-amide] | 16.7
4 | Cc1nc2c3c(c(C(F)(F)F)cc2n1C)-c1cccn2c(C(=O)c4cc(F)c(NC(=O)/C=C/CN5CCC[C@@]5(C)C(C)O)c(F)c4)cc(c12)CCO3 (single isomer, unassigned) [Example 258] | 6.69
5 | Cc1nc2c3c(c(C(F)(F)F)cc2n1C)-c1cccn2c(C(=O)c4cc(F)c(NC(=O)/C=C/CN5CCC[C@@]5(C)C(C)O)c(F)c4)cc(c12)CCO3 (single isomer, unassigned) [Example 259] | 14.2
6 | Cc1nc2c3c(c(C(F)(F)F)cc2n1C)-c1cccn2c(C(=O)c4cc(F)c(NC(=O)/C=C/CNC5CCOC5)c(F)c4)cc(c12)CCO3 (single isomer, unassigned) [Example 269, (E)-N-(4-(9,10-dimethyl-7-(trifluoromethyl)-13,14-dihydro-9H-imidazo-[4″,5″:5′,6′]benzo[1′,2′: 2,3]oxocino[4,5,6-hi]-indolizine-2-carbonyl)-2,6-difluorophenyl)-4-((tetrahydrofuran-3-yl)-amino)but-2-enamide] | 9.82
7 | Cc1nc2c3c(c(C(F)(F)F)cc2n1C)-c1cccn2c(C(=O)c4cc(F)c(NC(=O)/C=C/CNC5CCOC5)c(F)c4)cc(c12)CCO3 (single isomer, unassigned) [Example 270, (E)-N-(4-(9,10-dimethyl-7-(trifluoromethyl)-13,14-dihydro-9H-imidazo-[4″,5″:5′,6′]benzo[1′,2′: 2,3]oxocino[4,5,6-hi]-indolizine-2-carbonyl)-2,6-difluorophenyl)-4-((tetrahydrofuran-3-yl)-amino)but-2-enamide] | 12
8 | CC1Cc2cc(C(=O)c3cc(F)c(NC(=O)/C=C/CN[C@H]4CCOC4)c(F)c3)n3cccc(c23)-c2c(C(F)(F)F)cc3c(ncn3C)c2O1 (single isomer, unassigned) [Example 271] | 13.6
9 | Cc1nc2c3c(c(C(F)(F)F)cc2n1C)-c1cccn2c(C(=O)c4cc(F)c(NC(=O)/C=C/CNC5(C)COC5)c(F)c4)cc(c12)CC(C)O3 (single isomer, unassigned) [Example 272, mono((E)-2-(3,5-difluoro-4-(4-((3-methyloxetan-3-yl)ammonio)but-2-en-amido)benzoyl)-9,10,13-trimethyl-7-(trifluoro-methyl)-13,14-dihydro-9H-imidazo[4″,5″:5′,6′]-benzo[1′,2′:2,3]oxocino-[4,5,6-hi]indolizin-11-ium) mono(2,2,2-trifluoroacetate)] | 14.9
10 | Cc1nc2c3c(c(C(F)(F)F)cc2n1C)-c1cccn2c(C(=O)c4cc(F)c(NC(=O)/C=C/CNC5(C)COC5)c(F)c4)cc(c12)CC(C)O3 (single isomer, unassigned) [Example 273, mono((E)-2-(3,5-difluoro-4-(4-((3-methyloxetan-3-yl)ammonio)but-2-en-amido)benzoyl)-9,10,13-trimethyl-7-(trifluorometh-yl)-13,14-dihydro-9H-imidazo[4″,5″:5′,6′]benzo-[1′,2′:2,3]oxocino[4,5,6-hi]indolizin-11-ium) mono(2,2,2-trifluoro-acetate)] | 30.1
11 | Cc1nc2c3c(c(C(F)(F)F)cc2n1C)-c1cccn2c(C(=O)c4cc(F)c(NC(=O)/C=C/CN5CC6C(CO)C6C5)c(F)c4)cc(c12)CCO3 (single isomer, unassigned) [Example 278, (E)-3-(4-((4-(9,10-dimeth-yl-7-(trifluoromethyl)-13,14-dihydro-9H-imidazo-[4″,5″:5′,6′]-benzo[1′,2′:2,3]oxocino-[4,5,6-hi]indolizine-2-carbonyl)-2,6-difluoro-phenyl)amino)-4-oxobut-2-en-1-yl)-6-(hydroxy-methyl)-3-azabicyclo-[3.1.0]hexan-3-ium 2,2,2-trifluoroacetate] | 44.3
12 | CN1CCc2cc(C(=O)c3cc(F)c(NC(=O)/C=C/CNC4(C)COC4)c(F)c3)n3cccc(c23)-c2c(C(F)(F)F)cc3nn(C)cc3c21 (single isomer, unassigned) [Example 282, (E)-N-(4-((4-(10,12-dimethyl-7-(trifluorometh-yl)-10,12,13,14-tetrahydro-indolizino[8′,1′:4,5,6]-azocino[2,3-e]indazole-2-carbonyl)-2,6-difluoro-phenyl)amino)-4-oxobut-2-en-1-yl)-3-methyloxetan-3-aminium 2,2,2-trifluoro-acetate] | 57.6
13 | Cc1nc2c3c(c(C(F)(F)F)cc2n1C)-c1cccn2c(C(=O)c4cc(F)c(NC(=O)/C=C/CN5CC6(CCOC6)C5)c(F)c4)cc(c12)CCO3 (single isomer, unassigned) [Example 284] | 40.4

More lines, now with the values ahead:

Row | IC50 [nM] | SMILES
14 | 16.6 | COCc1nc2c3c(c(OC)cc2n1C)-c1cccn2c(C(=O)c4cc(F)c(NC(=O)/C=C/CNCC5(F)CC5)c(F)c4)cc(c12)CCN3C (atropisomer, axis not shown) [Example 287, (E)-N-(2,6-difluoro-4-(7-methoxy-10-(methoxymethyl)-9,12-dimethyl-9,12,13,14-tetrahydroimidazo[4″,5″:5′,6′]benzo[1′,2′:2,3]azocino[4,5,6-hi]indolizine-2-carbonyl)phenyl)-4-(((1-fluorocyclopropyl)methyl)amino)but-2-enamide]
15 | 16 | COCc1nc2c3c(c(OC)cc2n1C)-c1cccn2c(C(=O)c4cc(F)c(NC(=O)/C=C/[C@@H]5C[C@@H](F)CN5)c(F)c4)cc(c12)CCN3C (atropisomer, axis not shown) [Example 293, (E)-N-(2,6-difluoro-4-(7-methoxy-10-(methoxymethyl)-9,12-dimethyl-9,12,13,14-tetrahydroimidazo[4″,5″:5′,6′]benzo[1′,2′:2,3]azocino[4,5,6-hi]indolizine-2-carbonyl)phenyl)-3-((2S,4R)-4-fluoropyrrolidin-2-yl)acrylamide]
16 | 14.8 | Cc1nc2c3c(c(C(F)(F)F)cc2n1C)-c1cccn2c(C(=O)c4cc(F)c(NC(=O)/C(F)=C/CNC5(C)CCOCC5)c(F)c4)cc(c12)CCO3 (atropisomer, axis not shown) [Example 296, (Z)-N-(4-(9,10-dimethyl-7-(trifluoromethyl)-13,14-dihydro-9H-imidazo[4″,5″:5′,6′]benzo[1′,2′:2,3]oxocino[4,5,6-hi]indolizine-2-carbonyl)-2,6-difluorophenyl)-2-fluoro-4-((4-methyltetrahydro-2H-pyran-4-yl)amino)but-2-enamide]
17 | 84.9 | COCc1nc2c3c(c(OC)cc2n1C)-c1cccn2c(C(=O)c4cc(F)c(NC(=O)/C=C/CN5CC6(CCCOC6)C5)c(F)c4)cc(c12)CCN3C (single isomer, unassigned) [Example 292, mono((E)-2-(4-((2,6-difluoro-4-(7-methoxy-10-(methoxymethyl)-9,12-dimethyl-9,12,13,14-tetra-hydroimidazo[4″,5″: 5′,6′]benzo[1′,2′:2,3]azo-cino[4,5,6-hi]indolizin-11-ium-2-carbonyl)phenyl)-amino)-4-oxobut-2-en-1-yl)-6-oxa-2-azaspiro[3.5]-nonan-2-ium) mono(2,2,2-trifluoroacetate)]
18 | 41.6 | Cc1nc2c3c(c(C(F)(F)F)cc2n1C)-c1cccn2c(C(=O)c4cc(F)c(NC(=O)/C=C/CN5CCC5CC(C)(C)O)c(F)c4)cc(c12)CCN3C (single isomer, unassigned) [Example 298, (E)-1-(4-((2,6-difluoro-4-(9,10,12-trimethyl-7-(trifluoromethyl)-9,12,13,14-tetrahydro-imidazo[4″,5″:5′,6′]benzo-[1′,2′:2,3]azocino[4,5,6-hi]indolizine-2-carbonyl)-phenyl)amino)-4-oxobut-2-en-1-yl)-2-(2-hydroxy-2-methylpropyl)azetidin-1-ium 2,2,2-trifluoro-acetate]
19 | 52.5 | Cc1nc2c3c(c(C(F)(F)F)cc2n1C)-c1cccn2c(C(=O)c4cc(F)c(NC(=O)/C=C/CN5CCC5CC(C)(C)O)c(F)c4)cc(c12)CCN3C (single isomer, unassigned) [Example 299, (E)-1-(4-((2,6-difluoro-4-(9,10,12-trimethyl-7-(trifluoromethyl)-9,12,13,14-tetrahydro-imidazo[4″,5″:5′,6′]benzo-[1′,2′:2,3]azocino[4,5,6-hi]indolizine-2-carbonyl)-phenyl)amino)-4-oxobut-2-en-1-yl)-2-(2-hydroxy-2-methylpropyl)azetidin-1-ium 2,2,2-trifluoroacetate]
